From the supplement of paper PMC10820928
± gives the standard deviation of the averaged measurements.

Test system: Danio rerio embryo
Assay: benchmark concentration, MalformedAny+Mort@120 (percent of embryos dead or malformed at 120 hpf); higher = less toxic
Details: exposure window: 4-6 to 120 hpf
Method: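 Single zebrafish embryos in 96-well plates (200 µL; 0.5% DMSO vehicle) were exposed from about 4–6 hpf to 120 hpf at 7 or more concentrations up to 100 µM or the solubility limit, one plate per replicate. Each lab used its in-house protocol: Lab A used AB embryos in E3 with chorion on and daily renewal; Lab B used Tropical 5D embryos in E2, dechorionated, static; Lab C used AB embryos in E3 with chorion on, static. The percentage of dead or malformed embryos at 120 hpf was fitted per plate (positive control: per week) by bootstrap Curvep to give a benchmark concentration (BMC); inactive substances are set to the highest tested concentration, BMCs at the lowest tested concentration are floors.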

[1] = laboratory protocol: Lab A: static renewal, chorionated (SR-C), AB strain, E3
[2] = laboratory protocol: Lab C: static, chorionated (S-C), AB strain, E3
[3] = laboratory protocol: Lab B: static, dechorionated (S-DC), Tropical 5D strain, E2

SMILES | benchmark concentration [1] | benchmark concentration [2] | benchmark concentration [3]
CC(C)(C)[C@H](O)[C@H](Cc1ccc(Cl)cc1)n1cncn1 (racemic) [Paclobutrazol] | 0.339 ± 0.16 µM | 23.1 ± 21 µM | –
CC(C)(c1cc(Br)c(O)c(Br)c1)c1cc(Br)c(O)c(Br)c1 [3,3',5,5'-Tetrabromobisphenol A] | 1.39 µM | 4.25 ± 0.23 µM | 2.97 ± 0.81 µM
Nc1ccc(Cl)c(Cl)c1 [3,4-Dichloroaniline] | 7.8 ± 0.11 µM | 14 ± 4.4 µM | < 2 µM
CCCc1cc(=O)[nH]c(=S)[nH]1 [6-Propyl-2-thiouracil] | > 100 µM | – | > 100 µM
CC[C@H](C)[C@H]1O[C@]2(C=C[C@@H]1C)C[C@@H]1C[C@@H](C/C=C(\C)[C@@H](O[C@H]3C[C@H](OC)[C@@H](O[C@H]4C[C@H](OC)[C@@H](O)[C@H](C)O4)[C@H](C)O3)[C@@H](C)/C=C/C=C3\CO[C@@H]4[C@H](O)C(C)=C[C@@H](C(=O)O1)[C@]34O)O2.CO[C@H]1C[C@H](O[C@H]2[C@H](C)O[C@@H](O[C@@H]3/C(C)=C/C[C@@H]4C[C@@H](C[C@]5(C=C[C@H](C)[C@@H](C(C)C)O5)O4)OC(=O)[C@@H]4C=C(C)[C@@H](O)[C@H]5OC/C(=C\C=C\[C@@H]3C)[C@]54O)C[C@@H]2OC)O[C@@H](C)[C@@H]1O [Abamectin] | – | 0.436 ± 0.24 µM | –
CC=O [Acetaldehyde] | > 100 µM | > 100 µM | > 100 µM
CNC(=O)O/N=C/C(C)(C)SC [Aldicarb] | 0.926 ± 0.4 µM | 1.94 ± 0.48 µM | 2.27 ± 0.83 µM
CC(=O)Oc1ccccc1C(=O)O [Aspirin] | – | 24.6 ± 18 µM | > 100 µM
CCNc1nc(Cl)nc(NC(C)C)n1 [Atrazine] | 49 ± 5.9 µM | > 100 µM | > 100 µM
CCC[CH2][Sn]([CH2]CCC)([CH2]CCC)[O][Sn]([CH2]CCC)([CH2]CCC)[CH2]CCC [Bis(tributyltin)oxide] | 0.0463 ± 0.0031 µM | 1.08 ± 0.52 µM | –
CC(C)(c1ccc(O)cc1)c1ccc(O)cc1 [Bisphenol A] | 13 ± 2.4 µM | 21.8 ± 12 µM | 38.5 ± 2.8 µM
Cn1c(=O)c2c(ncn2C)n(C)c1=O [Caffeine] | > 100 µM | – | > 100 µM
CCOP(=O)(OCC)Oc1nc(Cl)c(Cl)cc1Cl [Chlorpyrifos oxon] | – | 0.2 ± 0.14 µM | 1.69 ± 0.43 µM
CCOP(=S)(OCC)Oc1nc(Cl)c(Cl)cc1Cl [Chlorpyrifos] | 0.879 ± 0.45 µM | 45.7 µM | 63.7 ± 35 µM
c1ccc2c(c1)ccc1cc3c(ccc4ccccc43)cc12 [Dibenz(a,h)anthracene] | – | > 100 µM | > 64 µM
CCCCOC(=O)c1ccccc1C(=O)OCCCC [Dibutyl phthalate] | 1.28 ± 0.24 µM | 38.2 ± 13 µM | 4.16 ± 0.31 µM
CC/C(=C(/CC)c1ccc(O)cc1)c1ccc(O)cc1 [Diethylstilbestrol] | 0.547 ± 0.03 µM | 3.37 ± 1.3 µM | 3.07 ± 0.69 µM
CCCCOC(=O)C(C)Oc1ccc(Oc2ccc(C(F)(F)F)cn2)cc1 (stereo not drawn) [Fluazifop-butyl] | 2.6 ± 1.5 µM | 53.8 ± 10 µM | 3.5 ± 1 µM
C[Si](Cn1cncn1)(c1ccc(F)cc1)c1ccc(F)cc1 [Flusilazole] | 1.41 ± 0.027 µM | 11.6 ± 5.1 µM | 6.04 ± 1.4 µM

SMILES | benchmark concentration [1] | benchmark concentration [2] | benchmark concentration [3]
NC(=O)NO [Hydroxyurea] | > 100 µM | – | > 100 µM
CC(C)NC(=O)N1CC(=O)N(c2cc(Cl)cc(Cl)c2)C1=O [Iprodione] | 11.7 ± 3.8 µM | 35.7 ± 18 µM | 62.3 ± 23 µM
Cl[C@H]1[C@H](Cl)[C@@H](Cl)[C@@H](Cl)[C@H](Cl)[C@H]1Cl [Lindane] | 1.24 ± 0.5 µM | 9.25 ± 4.2 µM | 35.6 ± 6.7 µM
CON(C)C(=O)Nc1ccc(Cl)c(Cl)c1 [Linuron] | 4.78 ± 0.21 µM | 29.7 ± 14 µM | 19.5 ± 9.7 µM
Oc1c(Cl)c(Cl)c(Cl)c(Cl)c1Cl [Pentachlorophenol] | 0.257 ± 0.15 µM | 0.818 ± 0.49 µM | < 1 µM
CCOP(=S)(OCC)SCSCC [Phorate] | 2.53 ± 1.7 µM | – | > 100 µM
CC(C)c1cccc(C(C)C)c1O [Propofol] | 0.502 ± 0.076 µM | – | > 100 µM
c1cc2ccc3cccc4ccc(c1)c2c34 [Pyrene] | 3.81 ± 1.2 µM | – | 50.5 ± 25 µM
CC(COc1ccc(Oc2ccccc2)cc1)Oc1ccccn1 (stereo not drawn) [Pyriproxyfen] | 4.41 ± 1.7 µM | – | 65.4 ± 16 µM
Oc1cccc(O)c1 [Resorcinol] | > 100 µM | > 100 µM | > 100 µM
C=C(C)[C@H]1Cc2c(ccc3c2O[C@@H]2COc4cc(OC)c(OC)cc4[C@@H]2C3=O)O1 [Rotenone] | – | 0.194 ± 0.15 µM | < 1 µM
CCCC(CCC)C(=O)O [Sodium valproate] | – | 4.12 µM | > 100 µM
O=C1CCC(N2C(=O)c3ccccc3C2=O)C(=O)N1 (stereo not drawn) [Thalidomide] | > 100 µM | – | > 100 µM
CC(C)(C)C(=O)C(Oc1ccc(Cl)cc1)n1cncn1 (stereo not drawn) [Triadimefon] | 1.51 ± 0.11 µM | 6.93 ± 6.8 µM | 7.61 ± 4.6 µM
Oc1cc(Cl)ccc1Oc1ccc(Cl)cc1Cl [Triclosan] | 1.2 ± 0.34 µM | 7.86 ± 5.5 µM | 3.62 ± 0.7 µM
O=P(Oc1ccccc1)(Oc1ccccc1)Oc1ccccc1 [Triphenyl phosphate] | 0.879 ± 0.45 µM | 30 ± 15 µM | 4.35 ± 0.61 µM
O=P(OC(CCl)CCl)(OC(CCl)CCl)OC(CCl)CCl [Tris(1,3-dichloro-2-propyl) phosphate] | 2.2 ± 0.24 µM | 15.9 ± 3.1 µM | 6.94 ± 2.6 µM
CCCC(CCC)C(=O)O [Valproic acid] | – | 6 ± 7.4 µM | –
CN(C)C(=S)[S-].CN(C)C(=S)[S-].[Zn+2] [Ziram] | – | – | < 1 µM
